Experimental data from PMC11124341, “4-Hydroxybenzoic Acid-Based Hydrazide–Hydrazones as Potent Growth Inhibition Agents of Laccase-Producing Phytopathogenic Fungi That Are Useful in the Protection of Oilseed Crops” (Molecules, 2024).
Values after ≈ are worked out from the molar mass of the structure shown.

Key:
[1] = tested on: Botrytis cinerea strain FBc05; assay: In vitro antifungal activity, mycelial growth inhibition on PDA medium; format: cell-based; conditions: for inhibition of growth at 50 µg/mL / fungal growth inhibition, B. cinerea: screening at basal 50 µg/mL, PDA medium, mean ± SD of three determinations; for inhibition of growth at 50 µg/mL: read-out: fungal growth inhibition, B. cinerea
Procedure: (§1) The cultures of Botrytis cinerea strain FBc05 and Sclerotinia sclerotiorum strain FSc10 were obtained from the collection of the Division of Plant Pathology and Mycology at the Department of Plant Protection of Wroclaw University of Environmental and Life Sciences (Poland). Cerrena unicolor (Bull.ex.Fr.) Murr, strain no. 139, originated from the culture collection of the Department of Biochemistry, University of Lublin (Poland). The stock cultures were maintained on potato dextrose agar at +4 °C and periodically transferred to a fresh medium.
(§2) Prior to the fungicidal activity assay of hydrazide–hydrazones 1–35, we considered ethanol and DMSO as potential dissolution media for tested compounds. […] Furthermore, a very important aspect of biological testing is the careful selection of organic solvents. These are typically used, e.g., methanol, ethanol, acetone, and DMSO, and may be highly toxic for microorganisms in even very low concentrations, such as 1% (v/v). Ethanol and DMSO with a final concentration between 0.1 and 1.0% (v/v) in a PDA medium were used and applied to evaluate the inhibition growth of B. cinerea, S. sclerotiorum, and C. unicolor (see Supplementary Materials). The following procedure was applied to the microorganism testing. The assays of fungi inhibition growth were performed at a basal concentration of 50 µg/mL for all compounds, and detailed experiments were extended for testing between 0 and 50 µg/mL (0, 6.25, 12.5, 25.0, and 50.0 µg/mL) for selected compounds. The tests were carried out on Petri dishes (diameter 60 mm) with PDA medium containing appropriate compound, co-solvent control, and hydrazide–hydrazone dissolved in co-solvent assay. A piece of mycelium with a 5 mm edge taken from the outer edge of the growing fungi on the PDA plate with co-solvent was transferred to a central part of the PDA plate with the examined compound. The plates thus inoculated were incubated at 22 °C in the dark for a time when the control plate containing only the co-solvent was covered entirely with the tested microorganism. For B. cinerea and S. sclerotiorum, the test took 3 days, and for C. unicolor, it took 7 days. Each assay was performed at least in triplicate. […] Model parameters c and e were estimated using the nonlinear least-squares method. Parameters d and b (with two exceptions) were fixed and assumed to be equal. Based on estimated parameters, the values of IC50 were determined. […] The IC50 values were calculated only in cases when the model predicted a decrease in growth rate by more than 50%.
(§3) In vitro antifungal activity
(§4) Prior to the fungicidal activity assay of hydrazide-hydrazones 1–35, we considered ethanol (EtOH) and DMSO as potential dissolution media for tested compounds.
(§5) EtOH and DMSO with a final concentration between 0.1–1.0% (v/v) in a PDA medium were applied to evaluate the inhibition growth of B. cinerea, S. sclerotiorum, and C. unicolor (see Table S3). The following procedure was applied to the microorganism testing with the hydrazide-hydrazones. The assays of fungi inhibition growth were performed at a basal concentration of 50 µg/mL for all compounds, and detailed experiments were extended for testing selected molecules 18, 19, 27, […]
(§6) Table S2. In vitro antifungal activity for DMSO and ethanol co-solvents.

[2] = tested on: Cerrena unicolor strain no. 139; assay: as above; format: cell-based; conditions: for inhibition of growth at 50 µg/mL / fungal growth inhibition, C. unicolor: screening at basal 50 µg/mL, PDA medium, mean ± SD of three determinations; for inhibition of growth at 50 µg/mL: read-out: fungal growth inhibition, C. unicolor
Procedure: as §1, §2, §3, §4, §5, §6

[3] = tested on: Sclerotinia sclerotiorum strain FSc10; assay: as above; format: cell-based
Procedure: as §1, §2, §3, §4, §5, §6

[4] = target: laccase from Trametes versicolor; conditions: read-out: Laccase inhibition, Ki; cited from earlier work
[5] = screening at basal 50 µg/mL, PDA medium, mean ± SD of three determinations

## COc1cc(O)c(/C=N/NC(=O)c2ccc(O)cc2)c(OC)c1 [compound 29]
[1]; Botrytis cinerea, FBC05
  inhibition of growth at 50 µg/mL: 8.1 ± 0.6%
[2]; Cerrena unicolor, NO.139
  inhibition of growth at 50 µg/mL: 9.1 ± 1.9%
[3]; [5]
  fungal growth inhibition, S. sclerotiorum: n.o.
[4]
  Ki: ≥ 1000 µM

## O=C(N/N=C/c1ccc(O)cc1)c1ccc(O)cc1 [compound 8]
[1]; Botrytis cinerea, FBC05
  inhibition of growth at 50 µg/mL: 4.2 ± 1.5%
[2]; Cerrena unicolor, NO.139
  inhibition of growth at 50 µg/mL: 14.3 ± 1.7%
[3]; [5]
  fungal growth inhibition, S. sclerotiorum: n.o.
[4]
  Ki: 638 µM

## COc1cccc(/C=N/NC(=O)c2ccc(O)cc2)c1 [compound 10]
[1]; Botrytis cinerea, FBC05
  inhibition of growth at 50 µg/mL: 3.9 ± 2.4%
[2]
  fungal growth inhibition, C. unicolor: n.o.
[3]; [5]
  fungal growth inhibition, S. sclerotiorum: n.o.
[4]
  Ki: 416 µM

## Cc1cc(CO)cc(/C=N/NC(=O)c2ccc(O)cc2)c1O [compound 24]
[1]
  fungal growth inhibition, B. cinerea: n.o.
[2]; Cerrena unicolor, NO.139
  inhibition of growth at 50 µg/mL: 42 ± 2.1%
[3]; [5]
  fungal growth inhibition, S. sclerotiorum: n.o.
[4]
  Ki: ≥ 1000 µM

## CC(=O)NN=Cc1cc(C)cc(C(C)(C)C)c1O [compound 35]
[1]
  fungal growth inhibition, B. cinerea: n.o.
[2]; Cerrena unicolor, NO.139
  inhibition of growth at 50 µg/mL: 45.7 ± 0.5%
[3]; [5]
  fungal growth inhibition, S. sclerotiorum: n.o.
[4]
  Ki: ≥ 1000 µM

## COc1ccc(/C=N/NC(=O)c2ccc(O)cc2)cc1 [compound 11]
[1]; Botrytis cinerea, FBC05
  inhibition of growth at 50 µg/mL: 4.4 ± 0.9%
[2]; Cerrena unicolor, NO.139
  inhibition of growth at 50 µg/mL: 11.7 ± 3.5%
[3]; [5]
  fungal growth inhibition, S. sclerotiorum: n.o.
[4]
  Ki: ≥ 2400 µM

## O=C(N/N=C/c1cc(Br)ccc1O)c1ccc(O)cc1 [compound 14]
[1]
  fungal growth inhibition, B. cinerea: n.o.
[2]; Cerrena unicolor, NO.139
  inhibition of growth at 50 µg/mL: 56.8 ± 8.4%
[3]; [5]
  fungal growth inhibition, S. sclerotiorum: n.o.
[4]
  Ki: ≥ 1000 µM

## O=C(N/N=C/c1ccc([N+](=O)[O-])o1)c1ccc(O)cc1 [compound 12, Nifuroxazide, reference compound]
[1]; Botrytis cinerea, FBC05
  inhibition of growth at 50 µg/mL: 3.3 ± 1.2%
[1]
  fungal growth inhibition, B. cinerea: no activity
[2]; Cerrena unicolor, NO.139
  inhibition of growth at 50 µg/mL: 19.5 ± 2.8%
[3]; [5]
  fungal growth inhibition, S. sclerotiorum: no activity and n.o.

## Cc1cc(/C=N/NC(=O)c2ccccc2)c(O)c(C(C)(C)C)c1 [compound 33]
[1]; Botrytis cinerea, FBC05
  inhibition of growth at 50 µg/mL: 3.9 ± 0.6%
[2]; Cerrena unicolor, NO.139
  inhibition of growth at 50 µg/mL: 36.6 ± 1.2%
[3]; [5]
  fungal growth inhibition, S. sclerotiorum: n.o.
[4]
  Ki: 82 µM

## Cc1ccc(/C=N/NC(=O)c2ccc(O)cc2)cc1 [compound 3]
[1]; Botrytis cinerea, FBC05
  inhibition of growth at 50 µg/mL: 3.3 ± 1.1%
[2]
  fungal growth inhibition, C. unicolor: n.o.
[3]; [5]
  fungal growth inhibition, S. sclerotiorum: n.o.
[4]
  Ki: 251 µM

## CC1(C(=O)Nc2ccc(O)c(Cl)c2Cl)CCCCC1 [Fenhexamid, reference compound]
[1]; Botrytis cinerea, FBC05, fungicidal profile, 6.25 µg/mL, read-out: B. cinerea inhibition
  inhibition at 6.25 µg/mL: 98.5%
[1]; Botrytis cinerea, FBC05, fungicidal profile, 50 µg/mL, read-out: B. cinerea inhibition
  inhibition at 50 µg/mL: 100%
[1]; Botrytis cinerea, FBC05, log-logistic model, 0–50 µg/mL range, read-out: IC50 against Botrytis cinerea (Bc)
  IC50: 0.1 µg/mL (≈ 0.331 µM)
[1]; Botrytis cinerea, FBC05
  inhibition of growth at 50 µg/mL: 99.9 ± 0.4%
[2]; Cerrena unicolor, NO.139, fungicidal profile, 50 µg/mL, read-out: C. unicolor inhibition
  inhibition at 50 µg/mL: 32.1%
[2]; Cerrena unicolor, NO.139
  inhibition of growth at 50 µg/mL: 39.9 ± 0.7%
[3]; Sclerotinia sclerotiorum, FSC10, fungicidal profile, 6.25 µg/mL, read-out: S. sclerotiorum inhibition
  inhibition at 6.25 µg/mL: 95.6%
[3]; Sclerotinia sclerotiorum, FSC10, fungicidal profile, 12.5 µg/mL, read-out: S. sclerotiorum inhibition
  inhibition at 12.5 µg/mL: 96.3%
[3]; Sclerotinia sclerotiorum, FSC10, log-logistic model, 0–50 µg/mL range, read-out: IC50 against Sclerotinia sclerotiorum (Ss)
  IC50: 4.2 µg/mL (≈ 13.9 µM)
[3]; Sclerotinia sclerotiorum, FSC10, screening at basal 50 µg/mL, PDA medium, mean ± SD of three determinations, read-out: fungal growth inhibition, S. sclerotiorum
  inhibition of growth at 50 µg/mL: 100 ± 0.3%

## O=C(N/N=C/c1cccc(O)c1)c1ccc(O)cc1 [compound 7]
[1]; Botrytis cinerea, FBC05
  inhibition of growth at 50 µg/mL: 3.7 ± 1.8%
[2]; Cerrena unicolor, NO.139
  inhibition of growth at 50 µg/mL: 12.6 ± 4.1%
[3]; [5]
  fungal growth inhibition, S. sclerotiorum: n.o.
[4]
  Ki: 2400 µM

## O=C(N/N=C/c1ccccc1O)c1ccc(O)cc1 [compound 6]
[1]; Botrytis cinerea, FBC05
  inhibition of growth at 50 µg/mL: 4.7 ± 1.1%
[2]; Cerrena unicolor, NO.139
  inhibition of growth at 50 µg/mL: 14.7 ± 0.3%
[3]; [5]
  fungal growth inhibition, S. sclerotiorum: n.o.
[4]
  Ki: 674 µM
